Active and inactive are the calls of the source. No cut-off for these calls is given here.
How the values were obtained:
[1] = Cytotoxicity against human NCI-H460/R cells transfected with MDR assessed as reduction in cell viability after 72 hrs by MTT assay; type: functional, cell-based; conditions: NCI-H460, 72 h
NCI-H661 [2] = test: Induction of DNA damage response in human NCI-H661 cells assessed as increase in H2AX expression at 10 uM after 24 hrs by alexa fluor 488-staining based flow cytometry; type: functional, cell-based
[3] = Cytotoxicity against mouse L5178 cells assessed as reduction in cell viability after 72 hrs by MTT assay; type: functional, cell-based; conditions: L5178, 72 h
NCI-H460 [4] = test: Induction of DNA damage response in human NCI-H460 cells assessed as increase in H2AX expression at 10 uM after 24 hrs by alexa fluor 488-staining based flow cytometry; type: functional, cell-based
[5] = Cytotoxicity against mouse L5178B1 cells transfected with pHa MDR1/A retrovirus assessed as reduction in cell viability after 72 hrs by MTT assay; type: functional, cell-based; conditions: MDR1, 72 h
[6] = Induction of apoptosis in human NCI-H460/R cells transfected with MDR assessed as viable cells at 10 uM after 24 hrs by Annexin V/propidium iodide-staining based flow cytometry (reference value: 95.76 +/- 2.87%); type: functional; conditions: NCI-H460, 24 h, read-out: Activity
A549 [7] = test: Induction of ROS generation in human A549 cells assessed as increase DHE positive cells at 10 uM after 24 hrs by DHE-staining based flow cytometry; type: functional, cell-based
HaCaT [8] = test: Cytotoxicity against human HaCaT cells assessed as reduction in cell viability after 72 hrs by MTT assay; type: cell-based
NCI-H460 [9] = test: Induction of apoptosis in human NCI-H460 cells assessed as late apoptotic cells at 10 uM after 24 hrs by Annexin V/propidium iodide-staining based flow cytometry (reference value: 0.93 +/- 0.04%); type: functional
Homo sapiens [10] = species: Homo sapiens; test: Induction of ROS generation in human NCI-H460/R cells transfected with MDR assessed as increase DHE positive cells at 10 uM after 24 hrs by DHE-staining based flow cytometry; type: functional, cell-based
Homo sapiens [11] = species: Homo sapiens; test: Induction of DNA damage response in human NCI-H460/R cells transfected with MDR assessed as increase in H2AX expression at 10 uM after 24 hrs by alexa fluor 488-staining based flow cytometry; type: functional, cell-based
A549 [12] = test: Cytotoxicity against human A549 cells assessed as reduction in cell viability after 72 hrs by MTT assay; type: functional, cell-based; conditions: A549, 72 h
A549 [13] = test: Induction of apoptosis in human A549 cells assessed as late apoptotic cells at 10 uM after 24 hrs by Annexin V/propidium iodide-staining based flow cytometry (reference value: 1.54 +/- 0.03%); type: functional
A549 [14] = test: Induction of apoptosis in human A549 cells assessed as necrotic cells at 10 uM after 24 hrs by Annexin V/propidium iodide-staining based flow cytometry (reference value: 1.52 +/- 0.05%); type: functional
NCI-H460 [15] = test: Induction of DNA damage response in human NCI-H460 cells transfected with MDR assessed as increase in H2AX expression at 10 uM after 24 hrs by alexa fluor 488-staining based flow cytometry; type: functional, cell-based
A549 [16] = test: Induction of DNA damage response in human A549 cells assessed as increase in H2AX expression at 10 uM after 24 hrs by alexa fluor 488-staining based flow cytometry; type: functional, cell-based
HeLa = test: Cytotoxicity against human HeLa cells assessed as reduction in cell viability after 72 hrs by MTT assay; type: functional, cell-based
NCI-H460 [17] = test: Induction of ROS generation in human NCI-H460 cells assessed as increase DHE positive cells at 10 uM after 24 hrs by DHE-staining based flow cytometry; type: functional, cell-based
NCI-H661 [18] = test: Induction of apoptosis in human NCI-H661 cells assessed as viable cells at 10 uM after 24 hrs by Annexin V/propidium iodide-staining based flow cytometry (reference value: 96.16 +/- 0.96%); type: functional; conditions: NCI-H661, 24 h, read-out: Activity
HaCaT [19] = test: Induction of apoptosis in human HaCaT cells assessed as necrotic cells at 10 uM after 24 hrs by Annexin V/propidium iodide-staining based flow cytometry (reference value: 1.88 +/- 0.02%); type: cell-based
[20] = Induction of apoptosis in human NCI-H460/R cells transfected with MDR assessed as early apoptotic cells at 10 uM after 24 hrs by Annexin V/propidium iodide-staining based flow cytometry (reference value: 0.22 +/- 0.01%); type: functional
A549 [21] = test: Induction of apoptosis in human A549 cells assessed as viable cells at 10 uM after 24 hrs by Annexin V/propidium iodide-staining based flow cytometry (reference value: 96.45 +/- 2.89%); type: functional; conditions: A549, 24 h, read-out: Activity
HaCaT [22] = test: Induction of apoptosis in human HaCaT cells assessed as late apoptotic cells at 10 uM after 24 hrs by Annexin V/propidium iodide-staining based flow cytometry (reference value: 2.26 +/- 0.09%); type: cell-based
[23] = Drug level using p-coumaric acid methyl ester assessed as compound formation by reverse phase-HPLC and HPLC-MS analysis based Fenton reaction assay; type: physicochemical
NCI-H661 [24] = test: Induction of apoptosis in human NCI-H661 cells assessed as late apoptotic cells at 10 uM after 24 hrs by Annexin V/propidium iodide-staining based flow cytometry (reference value: 0.95 +/- 0.03%); type: functional
NCI-H661 [25] = test: Induction of apoptosis in human NCI-H661 cells assessed as early apoptotic cells at 10 uM after 24 hrs by Annexin V/propidium iodide-staining based flow cytometry (reference value: 0.31 +/- 0.01%); type: functional
NCI-H661 [26] = test: Induction of apoptosis in human NCI-H661 cells assessed as necrotic cells at 10 uM after 24 hrs by Annexin V/propidium iodide-staining based flow cytometry (reference value: 2.58 +/- 0.05%); type: functional
HaCaT [27] = test: Induction of apoptosis in human HaCaT cells assessed as early apoptotic cells at 10 uM after 24 hrs by Annexin V/propidium iodide-staining based flow cytometry (reference value: 0.23 +/- 0.01%); type: cell-based
[28] = biological target: T1, Serine/threonine-protein kinase Chk1 (Homo sapiens) (UniProt O14757); test: Inhibition of CHK1 phosphorylation at S345 in human MCF7 cells at 10 uM pretreated for 30 mins followed by 10 J/m'2 irradiation and measured after 1 hr by Western blot analysis; type: cell-based
T1 sequence (whole entry): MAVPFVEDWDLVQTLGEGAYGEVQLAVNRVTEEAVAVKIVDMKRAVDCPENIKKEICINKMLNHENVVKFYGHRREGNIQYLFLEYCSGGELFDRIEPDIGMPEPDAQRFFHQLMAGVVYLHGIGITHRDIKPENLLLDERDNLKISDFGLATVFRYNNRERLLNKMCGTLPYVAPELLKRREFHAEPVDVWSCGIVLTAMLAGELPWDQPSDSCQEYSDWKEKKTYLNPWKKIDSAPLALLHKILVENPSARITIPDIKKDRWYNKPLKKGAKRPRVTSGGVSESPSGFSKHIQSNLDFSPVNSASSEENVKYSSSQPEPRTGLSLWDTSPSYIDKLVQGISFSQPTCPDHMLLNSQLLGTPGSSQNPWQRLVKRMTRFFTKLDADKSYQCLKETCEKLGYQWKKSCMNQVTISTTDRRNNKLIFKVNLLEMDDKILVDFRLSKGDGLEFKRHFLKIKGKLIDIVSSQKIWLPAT

Drug uptake [23]: Active
inhibition [28]: Active
Structure (SMILES): COC(=O)/C=C/C1(O)C=CC(=O)C=C1
IC50 [1]: 2.06 µM
Activity (NCI-H661 [2]): Active
IC50 [3]: 0.46 µM
Activity (NCI-H460 [4]): Active
IC50 [5]: 0.62 µM
viability at 10 µM [6]: 90%
Activity (A549 [7]): Active
IC50 (HaCaT [8]): 4.05 µM
Activity (NCI-H460 [9]): 3.35%
Activity (Homo sapiens [10]): inactive
Activity (Homo sapiens [11]): Active
IC50 (A549 [12]): 4.32 µM
Activity (A549 [13]): 3.93%
Activity (A549 [14]): 2.57%
Activity (NCI-H460 [15]): Active
Activity (A549 [16]): Active
IC50 (HeLa): 9.85 µM
Activity (NCI-H460 [17]): Active
viability at 10 µM (NCI-H661 [18]): 45.4%
Activity (HaCaT [19]): 5.21%
Activity [20]: 0.12%
viability at 10 µM (A549 [21]): 92.8%
Activity (HaCaT [22]): 2.85%
Activity (NCI-H661 [24]): 9.57%
Activity (NCI-H661 [25]): 0.18%
Activity (NCI-H661 [26]): 44.82%
Activity (HaCaT [27]): 0.44%
